Source: ChEMBL document CHEMBL1781973, “Novel and Potent 5-Piperazinyl Methyl-N 1-aryl Sulfonyl Indole Derivatives as 5-HT6 Receptor Ligands” (ACS Med Chem Lett, 2010)
Activity calls are given as the source filed them. No cut-off for these calls is given here.

Columns and labels:
[1] = target: 5-hydroxytryptamine receptor 6 (Homo sapiens, UniProt P50406); test: biochemical
Description: Displacement of [3H]LSD from human 5HT6 receptor expressed in HEK293 cells

[2] = target: T1, CYP1A2 (Homo sapiens, UniProt P05177); test: Inhibition of human CYP1A2 at 3 uM; format: ADME
T1 sequence (P05177 whole entry): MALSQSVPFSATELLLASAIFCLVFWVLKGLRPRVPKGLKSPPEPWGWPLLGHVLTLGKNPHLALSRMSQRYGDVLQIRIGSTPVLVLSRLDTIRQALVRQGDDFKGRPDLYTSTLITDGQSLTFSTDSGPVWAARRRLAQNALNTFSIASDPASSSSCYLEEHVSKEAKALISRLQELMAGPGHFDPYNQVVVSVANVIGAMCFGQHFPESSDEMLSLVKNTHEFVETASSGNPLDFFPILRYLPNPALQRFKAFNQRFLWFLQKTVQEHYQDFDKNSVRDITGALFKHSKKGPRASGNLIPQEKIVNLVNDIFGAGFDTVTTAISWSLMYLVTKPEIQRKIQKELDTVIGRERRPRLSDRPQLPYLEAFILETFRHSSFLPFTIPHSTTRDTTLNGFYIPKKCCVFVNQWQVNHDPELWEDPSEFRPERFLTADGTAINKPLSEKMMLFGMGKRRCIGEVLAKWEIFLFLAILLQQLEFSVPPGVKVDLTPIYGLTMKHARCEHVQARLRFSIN

[3] = target: T1, CYP1A2; test: Inhibition of human CYP1A2 at 10 uM; format: ADME
[4] = target: T2, CYP2A6 (Homo sapiens, UniProt P11509); test: Inhibition of human CYP2A6 at 3 uM; format: ADME
T2 sequence (P11509 whole entry): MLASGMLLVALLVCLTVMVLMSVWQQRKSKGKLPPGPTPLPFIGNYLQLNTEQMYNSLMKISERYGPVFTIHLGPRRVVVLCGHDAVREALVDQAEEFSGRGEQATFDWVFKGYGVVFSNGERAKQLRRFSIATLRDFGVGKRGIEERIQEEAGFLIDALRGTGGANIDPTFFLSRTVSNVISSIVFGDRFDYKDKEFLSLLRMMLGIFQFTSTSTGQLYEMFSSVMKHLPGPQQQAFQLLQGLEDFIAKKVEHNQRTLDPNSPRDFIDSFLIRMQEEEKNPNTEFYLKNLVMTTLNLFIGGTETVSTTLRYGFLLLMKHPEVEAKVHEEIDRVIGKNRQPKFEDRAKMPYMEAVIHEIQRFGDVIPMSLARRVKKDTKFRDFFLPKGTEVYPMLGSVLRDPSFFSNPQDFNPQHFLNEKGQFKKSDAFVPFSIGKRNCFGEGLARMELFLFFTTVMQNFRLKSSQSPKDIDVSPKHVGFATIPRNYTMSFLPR

[5] = target: T2, CYP2A6; test: Inhibition of human CYP2A6 at 10 uM; format: ADME
[6] = target: T3, CYP2C19 (Homo sapiens, UniProt P33261); test: Inhibition of human CYP2C19 at 3 uM; format: ADME
T3 sequence (P33261 whole entry): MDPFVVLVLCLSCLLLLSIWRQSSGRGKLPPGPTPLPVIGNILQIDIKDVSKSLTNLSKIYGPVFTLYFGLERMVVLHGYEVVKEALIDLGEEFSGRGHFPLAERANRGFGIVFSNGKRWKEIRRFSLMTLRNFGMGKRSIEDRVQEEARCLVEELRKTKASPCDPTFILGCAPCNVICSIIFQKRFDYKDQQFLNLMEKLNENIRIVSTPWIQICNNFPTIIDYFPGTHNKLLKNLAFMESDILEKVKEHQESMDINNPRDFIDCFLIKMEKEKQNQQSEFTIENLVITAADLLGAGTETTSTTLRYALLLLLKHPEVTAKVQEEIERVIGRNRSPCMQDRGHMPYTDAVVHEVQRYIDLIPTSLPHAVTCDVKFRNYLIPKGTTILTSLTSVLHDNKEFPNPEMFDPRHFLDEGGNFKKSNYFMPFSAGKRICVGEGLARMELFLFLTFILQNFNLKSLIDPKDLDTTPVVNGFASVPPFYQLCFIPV

[7] = target: T3, CYP2C19; test: Inhibition of human CYP2C19 at 10 uM; format: ADME
[8] = system: CYP2C9*1; test: Inhibition of human CYP2C9*1 at 3 uM; format: ADME
[9] = system: CYP2C9*1; test: Inhibition of human CYP2C9*1 at 10 uM; format: ADME
[10] = target: T4, CYP2D6 (Homo sapiens, UniProt P10635); test: Inhibition of human CYP2D6 at 3 uM; format: ADME
T4 sequence (P10635 whole entry): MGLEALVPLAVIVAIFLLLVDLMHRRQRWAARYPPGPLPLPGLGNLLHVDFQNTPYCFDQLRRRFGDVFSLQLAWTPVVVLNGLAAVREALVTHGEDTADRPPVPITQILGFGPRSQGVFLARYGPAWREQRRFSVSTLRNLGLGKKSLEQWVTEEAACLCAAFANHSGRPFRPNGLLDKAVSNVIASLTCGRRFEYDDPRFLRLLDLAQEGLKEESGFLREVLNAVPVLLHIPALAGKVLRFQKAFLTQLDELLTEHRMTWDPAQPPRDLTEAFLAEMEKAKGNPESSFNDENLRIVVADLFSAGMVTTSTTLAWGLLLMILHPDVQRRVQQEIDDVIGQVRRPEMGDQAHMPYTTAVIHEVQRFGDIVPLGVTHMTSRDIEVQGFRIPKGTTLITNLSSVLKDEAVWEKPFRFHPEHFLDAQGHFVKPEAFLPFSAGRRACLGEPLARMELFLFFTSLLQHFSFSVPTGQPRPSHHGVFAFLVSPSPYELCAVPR

[11] = target: T4, CYP2D6; test: Inhibition of human CYP2D6 at 10 uM; format: ADME
[12] = target: T5, CYP3A4 (Homo sapiens, UniProt P08684); test: Inhibition of human CYP3A4 at 3 uM; format: ADME
T5 sequence (P08684 whole entry): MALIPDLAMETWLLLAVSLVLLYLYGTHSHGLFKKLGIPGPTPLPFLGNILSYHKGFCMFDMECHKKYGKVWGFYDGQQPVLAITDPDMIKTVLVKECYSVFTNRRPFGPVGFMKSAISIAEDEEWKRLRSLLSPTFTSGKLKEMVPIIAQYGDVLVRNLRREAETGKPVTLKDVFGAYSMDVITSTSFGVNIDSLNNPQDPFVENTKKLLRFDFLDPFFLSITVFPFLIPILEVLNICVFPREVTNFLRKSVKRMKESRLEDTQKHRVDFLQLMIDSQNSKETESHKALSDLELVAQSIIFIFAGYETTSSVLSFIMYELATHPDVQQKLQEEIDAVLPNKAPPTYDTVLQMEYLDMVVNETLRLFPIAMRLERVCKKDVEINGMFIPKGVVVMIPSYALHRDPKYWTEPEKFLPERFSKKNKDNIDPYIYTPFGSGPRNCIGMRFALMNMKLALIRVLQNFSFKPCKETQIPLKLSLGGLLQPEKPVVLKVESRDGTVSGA

[13] = target: T5, CYP3A4; test: Inhibition of human CYP3A4 at 10 uM; format: ADME
[14] = system: Rattus norvegicus; test: Cognitive enhancing effect against scopolamine-induced memory deficit in Wistar rat at 10 mg/kg, po by novel object recognition test; format: functional, organism-based; parameters: dose 10 mg/kg
[15] = system: Rattus norvegicus; test: Cognitive enhancing effect against scopolamine-induced memory deficit in Wistar rat at 30 mg/kg, po administered 60 mins before acquisition training measured after 5 days by Morris water maze test; format: functional, organism-based; parameters: dose 30 mg/kg
[16] = target: 5-hydroxytryptamine receptor 4 (Homo sapiens, UniProt Q13639); test: Inhibition of human 5HT4 receptor expressed in CHO cells after 5 hrs by luciferase reporter assay; format: cell-based
Sequence of 5-hydroxytryptamine receptor 4 (Q13639 whole entry): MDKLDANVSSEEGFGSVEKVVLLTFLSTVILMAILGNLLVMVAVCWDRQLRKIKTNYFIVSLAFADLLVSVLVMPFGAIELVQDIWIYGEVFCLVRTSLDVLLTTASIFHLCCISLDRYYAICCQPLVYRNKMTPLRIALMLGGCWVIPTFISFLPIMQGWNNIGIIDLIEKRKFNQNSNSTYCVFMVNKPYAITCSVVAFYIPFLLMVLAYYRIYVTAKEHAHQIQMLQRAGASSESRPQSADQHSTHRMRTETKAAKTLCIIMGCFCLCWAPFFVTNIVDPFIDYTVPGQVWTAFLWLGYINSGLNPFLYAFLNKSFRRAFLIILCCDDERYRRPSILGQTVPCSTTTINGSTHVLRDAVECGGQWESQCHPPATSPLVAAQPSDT

[17] = target: 5-hydroxytryptamine receptor 7 (Homo sapiens, UniProt P34969); test: Inhibition of human 5HT7 receptor expressed in CHO cells after 5 hrs by luciferase reporter assay; format: cell-based
Sequence of 5-hydroxytryptamine receptor 7 (P34969 whole entry): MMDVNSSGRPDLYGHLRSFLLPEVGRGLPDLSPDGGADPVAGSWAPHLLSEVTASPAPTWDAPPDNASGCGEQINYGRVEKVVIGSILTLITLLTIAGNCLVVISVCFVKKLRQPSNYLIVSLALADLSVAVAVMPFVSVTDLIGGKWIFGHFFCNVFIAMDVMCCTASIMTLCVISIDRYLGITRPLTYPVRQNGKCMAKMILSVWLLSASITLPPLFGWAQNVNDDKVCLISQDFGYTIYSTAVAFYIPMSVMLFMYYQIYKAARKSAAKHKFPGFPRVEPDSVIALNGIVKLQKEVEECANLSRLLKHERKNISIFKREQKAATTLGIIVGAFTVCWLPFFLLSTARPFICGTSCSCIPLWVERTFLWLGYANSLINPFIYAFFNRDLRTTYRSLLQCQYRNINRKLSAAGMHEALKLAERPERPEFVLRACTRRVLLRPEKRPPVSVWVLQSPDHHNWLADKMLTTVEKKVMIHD

[18] = target: T6, Muscarinic acetylcholine receptor M1 (Homo sapiens, UniProt P11229); test: Inhibition of human muscarinic M1 receptor expressed in CHO cells after 5 hrs by luciferase reporter assay; format: cell-based
T6 sequence (P11229 whole entry): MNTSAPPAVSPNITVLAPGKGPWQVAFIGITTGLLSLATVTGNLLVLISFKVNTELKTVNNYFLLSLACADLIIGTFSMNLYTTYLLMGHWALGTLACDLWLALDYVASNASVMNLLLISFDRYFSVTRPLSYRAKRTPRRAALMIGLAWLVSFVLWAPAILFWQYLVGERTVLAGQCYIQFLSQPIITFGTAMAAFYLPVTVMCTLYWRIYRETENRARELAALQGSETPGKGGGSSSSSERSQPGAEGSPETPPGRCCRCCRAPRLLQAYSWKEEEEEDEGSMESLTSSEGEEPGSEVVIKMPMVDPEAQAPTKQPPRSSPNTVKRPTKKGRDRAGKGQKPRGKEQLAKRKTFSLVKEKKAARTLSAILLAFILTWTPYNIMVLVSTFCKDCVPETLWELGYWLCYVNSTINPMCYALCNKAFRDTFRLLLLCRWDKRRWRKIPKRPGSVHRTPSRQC

[19] = Cmax in fasted Wistar rat at 10 mg/kg, po; format: ADME, organism-based; parameters: dose 10 mg/kg, route oral; details: in vivo
[20] = Cmax in fasted Wistar rat at 10 mg/kg, iv; format: ADME, organism-based; parameters: dose 10 mg/kg, route intravenous; details: in vivo
[21] = AUCt in fasted Wistar rat at 10 mg/kg, po; format: ADME, organism-based; parameters: dose 10 mg/kg, route oral; details: plasma
[22] = AUCt in fasted Wistar rat at 10 mg/kg, iv; format: ADME, organism-based; parameters: dose 10 mg/kg, route intravenous; details: plasma
[23] = Half life in fasted Wistar rat at 10 mg/kg, po; format: ADME, organism-based; parameters: dose 10 mg/kg, route oral; details: in vivo
[24] = Half life in fasted Wistar rat at 10 mg/kg, iv; format: ADME, organism-based; parameters: dose 10 mg/kg, route intravenous; details: in vivo
[25] = system: Rattus norvegicus; test: Apparent volume of distribution in fasted Wistar rat at 10 mg/kg, po; format: ADME, organism-based; parameters: dose 10 mg/kg, route oral; details: in vivo
[26] = Apparent volume of distribution in fasted Wistar rat at 10 mg/kg, iv; format: ADME, organism-based; parameters: dose 10 mg/kg, route intravenous; details: in vivo, read-out: Vz
[27] = Clearance in fasted Wistar rat at 10 mg/kg, po; format: ADME, organism-based; parameters: dose 10 mg/kg, route oral; details: in vivo
[28] = Clearance in fasted Wistar rat at 10 mg/kg, iv; format: ADME, organism-based; parameters: dose 10 mg/kg, route intravenous; details: in vivo
[29] = Oral bioavailability in fasted Wistar rat; format: ADME, organism-based; details: in vivo
[30] = Ratio of drug level at steady state in brain to plasma in fasted Wistar rat; format: ADME; details: read-out: BPR

Sequence of 5-hydroxytryptamine receptor 6 (P50406 whole entry): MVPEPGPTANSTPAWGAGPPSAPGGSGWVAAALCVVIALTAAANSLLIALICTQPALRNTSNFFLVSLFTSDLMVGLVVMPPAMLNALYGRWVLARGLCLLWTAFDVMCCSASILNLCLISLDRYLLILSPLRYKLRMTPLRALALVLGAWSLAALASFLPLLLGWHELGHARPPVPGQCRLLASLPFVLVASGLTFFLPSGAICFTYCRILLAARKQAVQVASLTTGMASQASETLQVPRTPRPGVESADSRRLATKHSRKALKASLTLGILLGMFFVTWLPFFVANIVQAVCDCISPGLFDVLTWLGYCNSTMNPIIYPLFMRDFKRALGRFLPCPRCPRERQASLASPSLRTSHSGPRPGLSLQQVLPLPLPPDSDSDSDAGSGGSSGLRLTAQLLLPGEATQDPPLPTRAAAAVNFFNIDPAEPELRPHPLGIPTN

SMILES | Ki [1] [nM] | inhibition at 3 µM [2] [%] | inhibition at 10 µM [3] [%] | inhibition at 3 µM [4] [%] | inhibition at 10 µM [5] [%] | inhibition at 3 µM [6] [%] | inhibition at 10 µM [7] [%] | inhibition at 3 µM [8] [%] | inhibition at 10 µM [9] [%] | inhibition at 3 µM [10] [%] | inhibition at 10 µM [11] [%] | inhibition at 3 µM [12] [%] | inhibition at 10 µM [13] [%] | further results
CCN1CCN(Cc2ccc3c(ccn3S(=O)(=O)c3ccc(C)cc3)c2)CC1 | 11 | – | – | – | – | – | – | – | – | – | – | – | – | –
CN1CCN(Cc2ccc3c(c2)c(Cl)cn3S(=O)(=O)c2ccc(Cl)cc2)CC1 | 9.33 | – | – | – | – | – | – | – | – | – | – | – | – | –
CCN1CCN(Cc2ccc3c(ccn3S(=O)(=O)c3ccc(F)cc3)c2)CC1 | – | 13.7 | 8.34 | -7.74 | 10.2 | 6.75 | 4.7 | -14.3 | 19.6 | 10.3 | 46 | 18.6 | 34.2 | –
O=S(=O)(c1ccc(F)cc1F)n1cc(Cl)c2cc(CN3CCNCC3)ccc21 | 5.57 | 14.5 | 14.6 | -3.62 | 6.37 | 31.9 | 72.9 | -12.6 | 27.8 | 1.46 | 17.7 | 26.4 | 45 | –
CN1CCN(Cc2ccc3c(ccn3S(=O)(=O)c3ccccc3)c2)CC1 | – | 14.4 | 17.3 | -2.24 | 4.81 | 9.91 | 31.2 | -8.69 | 18.2 | 12 | 31.2 | 8.24 | 5.47 | –
CCN1CCN(Cc2ccc3c(ccn3S(=O)(=O)c3ccccc3Br)c2)CC1 | – | 3.64 | 17.9 | -0.39 | 10.8 | 22.8 | 43.6 | 7.47 | 15.9 | 48.3 | 76.2 | -3.67 | 32.9 | Activity [14]: Active; Activity [15]: Active; IC50 [16]: > 10000 nM; IC50 [17]: > 10000 nM; IC50 [18]: 1420 nM; Cmax [19]: 13 ng/mL; Cmax [20]: 716 ng/mL; AUC(0-t) [21]: 59 ng·h/mL; AUC(0-t) [22]: 1380 ng·h/mL; half-life [23]: 6.04 h; half-life [24]: 2.1 h; Vz [25]: 1035.145 L/kg; Vd [26]: 21.8 L/kg; CL/F [27]: 2140 mL/min/kg; clearance [28]: 120 mL/min/kg; bioavailability [29]: 4.2%; Kp [30]: 19.3
CN1CCN(Cc2ccc3c(ccn3S(=O)(=O)c3cccc(C(F)(F)F)c3)c2)CC1 | 3.15 | – | – | – | – | – | – | – | – | – | – | – | – | –
CN1CCN(Cc2ccc3c(ccn3C(=O)c3ccccc3)c2)CC1 | > 1000 | – | – | – | – | – | – | – | – | – | – | – | – | –
CCN1CCN(Cc2ccc3c(ccn3S(=O)(=O)c3ccc(Cl)cc3)c2)CC1 | 28.2 | – | – | – | – | – | – | – | – | – | – | – | – | –
CCN1CCN(Cc2ccc3c(ccn3S(=O)(=O)c3cccc(C(F)(F)F)c3)c2)CC1 | 5.72 | – | – | – | – | – | – | – | – | – | – | – | – | –
CN1CCN(Cc2ccc3c(c2)c(Cl)cn3S(=O)(=O)c2ccc(F)cc2)CC1 | – | 3.4 | 26.9 | 14.1 | 19.8 | 10.1 | 21.5 | 6.42 | 9.13 | 6.42 | 15.2 | 2.6 | 39 | IC50 [16]: > 10000 nM; IC50 [17]: > 10000 nM; IC50 [18]: > 10000 nM
CCN1CCN(Cc2ccc3c(ccn3S(=O)(=O)c3ccc(C(C)C)cc3)c2)CC1 | – | 14.5 | 18.2 | -1.26 | 21.9 | 23.9 | 51.1 | 7.12 | 46.3 | 10.4 | 35.7 | 30.5 | 68.1 | –
CCN1CCN(Cc2ccc3c(ccn3Cc3ccccc3)c2)CC1 | > 1000 | – | – | – | – | – | – | – | – | – | – | – | – | –
